According to publication PMC4826234, “Emodin potentiates the antiproliferative effect of interferon α/β by activation of JAK/STAT pathway signaling through inhibition of the 26S proteasome” (Oncotarget, 2015):

What was measured:
Type in all cases: biochemical
[1] = target: T1, 26S proteasome β2 subunit (trypsin-like activity) (Homo sapiens, UniProt Q99436); assay: peptidase assay of purified human […] proteasome with Ac-Arg-Leu-Arg-AMC
T1 construct: gene PSMB7; purified human 26S proteasome; with other subunits of the 26S proteasome
T1 sequence (Q99436 44-277): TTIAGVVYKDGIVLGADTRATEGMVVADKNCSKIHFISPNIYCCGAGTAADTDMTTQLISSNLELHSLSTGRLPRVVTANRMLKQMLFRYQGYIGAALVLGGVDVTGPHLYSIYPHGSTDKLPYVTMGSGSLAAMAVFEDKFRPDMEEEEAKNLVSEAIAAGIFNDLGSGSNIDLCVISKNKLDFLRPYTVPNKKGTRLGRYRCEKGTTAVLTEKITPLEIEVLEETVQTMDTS

[2] = target: T2, 26S proteasome β5 subunit (chymotrypsin-like activity) (Homo sapiens, UniProt P28074); assay: peptidase assay of purified human […] proteasome with Suc-Leu-Leu-Val-Tyr-AMC
T2 construct: gene PSMB5; purified human 26S proteasome; with other subunits of the 26S proteasome
T2 sequence (P28074 60-263): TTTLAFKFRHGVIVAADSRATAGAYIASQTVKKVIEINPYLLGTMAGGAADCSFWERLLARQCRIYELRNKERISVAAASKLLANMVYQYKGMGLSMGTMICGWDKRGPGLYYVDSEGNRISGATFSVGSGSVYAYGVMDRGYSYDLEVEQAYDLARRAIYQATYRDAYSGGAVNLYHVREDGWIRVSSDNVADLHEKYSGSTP

[3] = target: T3, 26S proteasome β1 subunit (caspase-like activity) (Homo sapiens, UniProt P28072); assay: peptidase assay of purified human […] proteasome with Z-Nle-Pro-Nle-Asp-aminoluciferin
T3 construct: gene PSMB6; purified human 26S proteasome; with other subunits of the 26S proteasome
T3 sequence (P28072 35-239): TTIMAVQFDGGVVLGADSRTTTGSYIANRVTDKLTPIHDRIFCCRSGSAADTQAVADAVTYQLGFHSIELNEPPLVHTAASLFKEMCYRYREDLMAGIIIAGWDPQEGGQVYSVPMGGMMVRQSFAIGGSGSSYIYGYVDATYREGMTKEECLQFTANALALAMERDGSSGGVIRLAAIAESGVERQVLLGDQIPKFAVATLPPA

Cc1cc(O)c2c(c1)C(=O)c1cc(O)cc(O)c1C2=O [emodin, 1,3,8-trihydroxy-6-methylanthraquinone]
IC50 [1]: 20800 nM | IC50 [2]: 1220 nM | IC50 [3]: 240 nM
